In patent publication US7351861B2 (priority 2002, dated 2008):
Where two headings read alike, the source gives them in different places.

What was measured:
Type in all cases: cell-based, Yersinia pseudotuberculosis
[1] = tested on: luciferase light signal from pIB102EL (yopE-luxAB, wild-type); experiment: microbe, parasite or virus in culture; conditions: for Inhibition (%) of the luciferase light signal: strain pIB102EL, Table 2C; for inhibition at 5 µM / inhibition at 10 µM / inhibition at 20 µM / inhibition at 50 µM / inhibition at 100 µM: Yersinia pseudotuberculosis, read-out: Inhibition (%) of the luciferase light signal
[2] = tested on: luciferase light signal from pIB29EL (yopE-luxAB); experiment: microbe, parasite or virus in culture; conditions: for inhibition at 5 µM / inhibition at 10 µM / inhibition at 20 µM / inhibition at 50 µM / inhibition at 100 µM: Yersinia pseudotuberculosis; for inhibition at 10 µM: read-out: Inhibition (%) of the luciferase light signal, 10 μM; for inhibition at 20 µM: read-out: Inhibition (%) of the luciferase light signal, 20 μM; for inhibition at 50 µM: read-out: Inhibition (%) of the luciferase light signal, 50 μM; for inhibition at 100 µM: read-out: Inhibition (%) of the luciferase light signal, 100 μM
[3] = tested on: luciferase light signal from pIB102AL (luxAB downstream of the promoter for YerA)
[4] = tested on: reporter gene signal from pIB102FL (lcrF-luxAB)
[5] = tested on: reporter gene signal from pIB102FΔhlhL (lcrFΔhlh-luxAB)
[6] = tested on: Yop secretion from the wild-type strain pIB102EL; conditions: for Inhibition of Yop secretion into the surrounding medium (in words): supernatant after 3 h at 37° C., Western analysis
[7] = 10 μM, strain pIB29EL, Table 2C
[8] = 20 μM, strain pIB29EL, Table 2C
[9] = 50 μM, strain pIB29EL, Table 2C
[10] = 100 μM, strain pIB29EL, Table 2C
[11] = read-out: Inhibition (%) of the luciferase light signal, 5 μM, strain pIB29EL, Table 2C

SMILES: O=C(N/N=C/c1cc(I)cc(I)c1O)c1ccc([N+](=O)[O-])cc1 [Compound 41]
- Inhibition (%) of the luciferase light signal ([1]; 5 μM): 3%
- Inhibition (%) of the luciferase light signal ([1]; 10 μM): 13%
- Inhibition (%) of the luciferase light signal ([1]; 20 μM): 33%
- Inhibition (%) of the luciferase light signal ([1]; 50 μM): 48%
- Inhibition (%) of the luciferase light signal ([1]; 100 μM): 44%

SMILES: CC(=O)Oc1c(I)cc(I)cc1C(=O)Nc1ccc(Cl)cc1 [Compound 4, 2-acetoxy-4′-chloro-3,5-diiodobenzanilide]
- inhibition at 5 µM ([2]; read-out: Inhibition (%) of the luciferase light signal, 5 μM (first of two columns headed 5), pIB29EL, Table 2B): 15%
- inhibition at 5 µM ([2]; read-out: Inhibition (%) of the luciferase light signal, 5 μM (second of two columns headed 5), pIB29EL, Table 2B): 45%
- inhibition at 10 µM ([2]; pIB29EL, Table 2B): 81%
- inhibition at 20 µM ([2]; pIB29EL, Table 2B): 96%
- Effect on reporter gene signal (in words) ([1]; pIB102EL, FIG. 5C): inhibits the reporter gene signal
- Effect on reporter gene signal (in words) [3]: inhibits the reporter gene signal
- Selectivity between pIB102EL (YopE promoter) and control strain pIB102AL (in words) [3]: no selectivity
- Effect on reporter gene signal (in words) [4]: inhibits the reporter gene signal
- Effect on reporter gene signal (in words) [5]: inhibits the reporter gene signal
- Inhibition of Yop secretion into the surrounding medium (in words) [6]: dose dependent inhibition of secretion

SMILES: CCOc1cccc(/C=N/NC(=O)c2ccc(Cl)cc2)c1O [Compound 43]
- Inhibition (%) of the luciferase light signal ([1]; 5 μM): 0%
- Inhibition (%) of the luciferase light signal ([1]; 10 μM): 6%
- Inhibition (%) of the luciferase light signal ([1]; 20 μM): 12%
- Inhibition (%) of the luciferase light signal ([1]; 50 μM): 22%
- Inhibition (%) of the luciferase light signal ([1]; 100 μM): 34%

SMILES: CCN(CC)c1ccc(/C=N/NC(=O)c2cccnc2)c(O)c1 [Compound 37]
- inhibition at 5 µM [1]: 5%
- inhibition at 10 µM [1]: 8%
- inhibition at 20 µM [1]: 21%
- inhibition at 50 µM [1]: 30%
- inhibition at 100 µM [1]: 32%

SMILES: O=C(N/N=C/c1cc(Cl)cc(Cl)c1O)c1ccccc1 [Compound 35]
- Inhibition (%) of the luciferase light signal ([1]; 5 μM): 0%
- Inhibition (%) of the luciferase light signal ([1]; 10 μM): 0%
- Inhibition (%) of the luciferase light signal ([1]; 20 μM): 5%
- Inhibition (%) of the luciferase light signal ([1]; 50 μM): 21%
- Inhibition (%) of the luciferase light signal ([1]; 100 μM): 43%

SMILES: O=C(N/N=C/c1ccc(O)cc1O)c1ccc([N+](=O)[O-])cc1 [Compound 38]
- Inhibition (%) of the luciferase light signal ([1]; 5 μM): 4%
- Inhibition (%) of the luciferase light signal ([1]; 10 μM): 10%
- Inhibition (%) of the luciferase light signal ([1]; 20 μM): 13%
- Inhibition (%) of the luciferase light signal ([1]; 50 μM): 23%
- Inhibition (%) of the luciferase light signal ([1]; 100 μM): 36%

SMILES: O=C(N/N=C/c1cc(Br)ccc1O)c1cccnc1 [Compound 42]
- Inhibition (%) of the luciferase light signal ([1]; 5 μM): 0%
- Inhibition (%) of the luciferase light signal ([1]; 10 μM): 9%
- Inhibition (%) of the luciferase light signal ([1]; 20 μM): 16%
- Inhibition (%) of the luciferase light signal ([1]; 50 μM): 49%
- Inhibition (%) of the luciferase light signal ([1]; 100 μM): 59%

SMILES: O=C(N/N=C/c1cc(Br)cc(Br)c1O)c1ccc([N+](=O)[O-])cc1 [Compound 3]
- Inhibition (%) of the luciferase light signal ([2]; 10 μM, pIB29EL, Table 2A): 12%
- Inhibition (%) of the luciferase light signal ([2]; 20 μM, pIB29EL, Table 2A): 48%
- Inhibition (%) of the luciferase light signal ([2]; 50 μM, pIB29EL, Table 2A): 85%
- Inhibition (%) of the luciferase light signal ([2]; 100 μM, pIB29EL, Table 2A): 86%
- Potency within the class of acylated hydrazones of salicylic aldehydes from primary screening (in words) ([2]; pIB29EL): most potent
- Selectivity between pIB102EL (YopE promoter) and control strain pIB102AL (in words) [3]: stronger inhibitory effect on the wild-type strain pIB102EL
- Effect on reporter gene signal (in words) [4]: enhance the reporter gene signal
- Effect on reporter gene signal (in words) [5]: more than doubled
- Inhibition of Yop secretion into the surrounding medium (in words) [6]: efficiently inhibits Yop secretion in a dose dependent manner
- Total Yop content, bacteria and surrounding media (in words) ([6]; various concentrations incl. 50 and 100 μM lanes, FIG. 6B): Yops can be observed at concentrations that completely inhibit secretion

SMILES: Nc1ccc(C(=O)N/N=C/c2cc(I)cc(I)c2O)cc1 [Compound 40]
- Inhibition (%) of the luciferase light signal ([1]; 5 μM): 3%
- Inhibition (%) of the luciferase light signal ([1]; 10 μM): 11%
- Inhibition (%) of the luciferase light signal ([1]; 20 μM): 18%
- Inhibition (%) of the luciferase light signal ([1]; 50 μM): 41%
- Inhibition (%) of the luciferase light signal ([1]; 100 μM): 50%

SMILES: Nc1ccc(C(=O)N/N=C/c2c(O)ccc3ccccc23)cc1 [Compound 44]
- Inhibition (%) of the luciferase light signal ([1]; 5 μM): 3%
- Inhibition (%) of the luciferase light signal ([1]; 10 μM): 10%
- Inhibition (%) of the luciferase light signal ([1]; 20 μM): 15%
- Inhibition (%) of the luciferase light signal ([1]; 50 μM): 23%
- Inhibition (%) of the luciferase light signal ([1]; 100 μM): 30%

SMILES: O=C(N/N=C/c1ccc(O)c(O)c1O)c1ccccc1 [Compound 36]
- Inhibition (%) of the luciferase light signal ([1]; 5 μM): 5%
- Inhibition (%) of the luciferase light signal ([1]; 10 μM): 10%
- Inhibition (%) of the luciferase light signal ([1]; 20 μM): 15%
- Inhibition (%) of the luciferase light signal ([1]; 50 μM): 24%
- Inhibition (%) of the luciferase light signal ([1]; 100 μM): 54%

SMILES: O=C(N/N=C/c1ccc(O)c(O)c1O)c1ccco1 [Compound 34]
- inhibition at 5 µM [1]: 1%
- inhibition at 10 µM [1]: 5%
- inhibition at 20 µM [1]: 10%
- inhibition at 50 µM [1]: 26%
- inhibition at 100 µM [1]: 56%

SMILES: CC(=NNC(=O)c1cccnc1)c1cc(Br)cc(Br)c1O [Compound 39]
- Inhibition (%) of the luciferase light signal ([1]; 5 μM): 0%
- Inhibition (%) of the luciferase light signal ([1]; 10 μM): 3%
- Inhibition (%) of the luciferase light signal ([1]; 20 μM): 4%
- Inhibition (%) of the luciferase light signal ([1]; 50 μM): 13%
- Inhibition (%) of the luciferase light signal ([1]; 100 μM): 24%

SMILES: O=C(Nc1ccc(Cl)c(Cl)c1)c1cc(Cl)ccc1NS(=O)(=O)c1cccc2nsnc12 [Compound 5]
- Inhibition (%) of the luciferase light signal ([2]; 10 μM, pIB29EL, Table 2A): 35%
- Inhibition (%) of the luciferase light signal ([2]; 20 μM, pIB29EL, Table 2A): 60%
- Inhibition (%) of the luciferase light signal ([2]; 50 μM, pIB29EL, Table 2A): 69%
- Inhibition (%) of the luciferase light signal ([2]; 100 μM, pIB29EL, Table 2A): 66%
- Selectivity between pIB102EL (YopE promoter) and control strain pIB102AL (in words) [3]: stronger inhibitory effect on the wild-type strain pIB102EL
- Effect on reporter gene signal (in words) [4]: minor inhibition
- Effect on reporter gene signal (in words) [5]: modest enhancement
- Inhibition of Yop secretion into the surrounding medium (in words) [6]: dose dependent inhibition of secretion

SMILES: C/C(=N\NC(=O)c1ccc([N+](=O)[O-])cc1)c1cc(Br)cc(Br)c1O [Compound 21]
- inhibition at 10 µM ([2]; strain pIB29EL, Table 2C): 21%
- inhibition at 20 µM ([2]; strain pIB29EL, Table 2C): 18%
- inhibition at 50 µM ([2]; strain pIB29EL, Table 2C): 44%
- inhibition at 100 µM ([2]; strain pIB29EL, Table 2C): 57%

SMILES: O=C(Nc1ccccc1)c1cc(I)cc(I)c1O [Compound 31]
- Inhibition (%) of the luciferase light signal ([2]; 5 μM, strain pIB29EL, Table 2C): 10%
- Inhibition (%) of the luciferase light signal [2, 7]: 30%
- Inhibition (%) of the luciferase light signal [2, 8]: 60%
- Inhibition (%) of the luciferase light signal [2, 9]: 77%
- Inhibition (%) of the luciferase light signal [2, 10]: 98%

SMILES: CCCCCCCc1ccc(NC(=O)c2cc(I)cc(I)c2O)cc1 [Compound 28]
- inhibition at 5 µM [2, 11]: 67%
- inhibition at 10 µM ([2]; strain pIB29EL, Table 2C): 90%
- inhibition at 20 µM ([2]; strain pIB29EL, Table 2C): 99%
- inhibition at 50 µM ([2]; strain pIB29EL, Table 2C): 99%
- inhibition at 100 µM ([2]; strain pIB29EL, Table 2C): 99%

SMILES: O=C(Nc1ccc(Br)cc1)c1cc(I)ccc1O [Compound 50]
- Inhibition (%) of the luciferase light signal ([2]; 5 μM, strain pIB29EL, Table 2C): 57%
- Inhibition (%) of the luciferase light signal [2, 7]: 69%
- Inhibition (%) of the luciferase light signal [2, 8]: 62%
- Inhibition (%) of the luciferase light signal [2, 9]: 72%
- Inhibition (%) of the luciferase light signal [2, 10]: 70%

SMILES: NC(=O)C(=O)N/N=C/c1cc(Br)cc(Br)c1O [Compound 61]
- Inhibition (%) of the luciferase light signal ([2]; 5 μM, strain pIB29EL, Table 2C): 7%
- Inhibition (%) of the luciferase light signal [2, 7]: 9%
- Inhibition (%) of the luciferase light signal [2, 8]: 19%
- Inhibition (%) of the luciferase light signal [2, 9]: 32%
- Inhibition (%) of the luciferase light signal [2, 10]: 55%

SMILES: O=C(Nc1ccc(Cl)cc1)c1cc(I)cc(I)c1O [Compound 25]
- inhibition at 5 µM [2, 11]: 80%
- inhibition at 10 µM ([2]; strain pIB29EL, Table 2C): 92%
- inhibition at 20 µM ([2]; strain pIB29EL, Table 2C): 93%
- inhibition at 50 µM ([2]; strain pIB29EL, Table 2C): 100%
- inhibition at 100 µM ([2]; strain pIB29EL, Table 2C): 98%

SMILES: CC(=O)Oc1ccc(Cl)cc1C(=O)Nc1ccc([N+](=O)[O-])cc1Cl [Compound 56]
- Inhibition (%) of the luciferase light signal ([2]; 5 μM, strain pIB29EL, Table 2C): 77%
- Inhibition (%) of the luciferase light signal [2, 7]: 90%
- Inhibition (%) of the luciferase light signal [2, 8]: 91%
- Inhibition (%) of the luciferase light signal [2, 9]: 91%
- Inhibition (%) of the luciferase light signal [2, 10]: 90%

SMILES: CC(=O)Oc1cc(C)ccc1C(=O)Nc1ccccc1F [Compound 30]
- inhibition at 5 µM [2, 11]: 14%
- inhibition at 10 µM ([2]; strain pIB29EL, Table 2C): 15%
- inhibition at 20 µM ([2]; strain pIB29EL, Table 2C): 35%
- inhibition at 50 µM ([2]; strain pIB29EL, Table 2C): 63%
- inhibition at 100 µM ([2]; strain pIB29EL, Table 2C): 83%

SMILES: NC(=O)C(=O)N/N=C/c1cc(Br)ccc1O [Compound 22]
- inhibition at 5 µM [1]: 0%
- inhibition at 10 µM [1]: 4%
- inhibition at 20 µM [1]: 24%
- inhibition at 50 µM [1]: 66%
- inhibition at 100 µM [1]: 82%
